The record followed here is ChEMBL document CHEMBL1149036, “Swertifrancheside, an HIV-reverse transcriptase inhibitor and the first flavone-xanthone dimer, from Swertia franchetiana” (J Nat Prod, 1994).

By inhibition is commonly meant the drop in the measured response relative to a control, in per cent. Higher therefore signals a response far below the control.

Experiment [1] has as its target Human immunodeficiency virus type 1 reverse transcriptase (Human immunodeficiency virus 1) (UniProt Q72547). Description: Inhibition of HIV1 reverse transcriptase.
Experiment [2] has the same target. Description: Inhibition of HIV1 reverse transcriptase at 200 ug/mL.

SMILES strings stand for the structures. Values after ≈ are worked out from the molar mass of the structure shown.

On to `COc1cc(O)c2c(=O)c3c(O)c(-c4c(O)c([C@@H]5O[C@H](CO)[C@@H](O)[C@H](O)[C@H]5O)c(O)c5c(=O)cc(-c6ccc(O)c(O)c6)oc45)cc(O)c3oc2c1`, for which the ED50 in experiment [1] stood at 30.9 µg/mL (≈ 42.9 µM). Also, the inhibition in experiment [2] worked out at 99.8%. `COc1cc(O)c2c(=O)c3c(O)c(-c4c(O)c([C@@H]5O[C@H](CO)[C@@H](O)[C@H](O)[C@H]5O)c(O)c5c(=O)c6cc(O)c(O)cc6oc45)cc(O)c3oc2c1` yielded an ED50 in experiment [1] of 3 µg/mL (≈ 4.32 µM).
